Results: paper PMC10310857 (Nature Communications, 2023)
Several values for one entry are separate records, joined by “and”; a condition that tells them apart may be missing. Identical values can stand only once.

Tests used:
[1] = tested on: GhMPK6; design: species or system Gossypium hirsutum cv. Lvmian; conditions: in vivo
[2] = tested on: GhRbohD; design: species or system Gossypium hirsutum cv. Lvmian; conditions: in vivo

O=C(NO)c1ccccc1 [Compound 1, benzohydroxamic acid]
GhMPK6 expression in cotton roots (Fig. 3e) Mean [1]: 2.326 and 2.211 and 2.747 and 2.402
GhRbohD expression in cotton roots (Fig. 3f) Mean [2]: 6.888 and 6.864 and 7.067 and 8.206
